Results from patent publication US11873320B2 (REATA PHARMACEUTICALS HOLDINGS, LLC, priority 2013, dated 2024).
Read-outs that look alike come from different tables or passages of the source.

Legend:
TGA-MS of solid forms = type: physicochemical; conditions: for hygroscopicity: indicated by TGA-MS; for mass loss in TGA-MS between 25 and 200° C.: traces of H2O
Procedure: The TGA was run with TA instruments, data were collected on a thermal balance (Q-5000, TA Instruments, New Castle, Del.) equipped with a data analyzer (Universal Analysis 2000, version 4.5A, TA Instruments, New Castle, Del.). During experiments, the furnace was purged with nitrogen at 60 mL/minute, while the balance chamber was purged at 40 mL/minute. Temperature of the TGA furnace was calibrated using curie points of […] and nickel. Sample size ranged from 2 to 20 mg, and a heating rate of 10° C./minute was used.
For TGA-MS, the thermogravimetric analysis part was the same as above. The mass of evolved gas was analyzed with […] GSD 301 T3 ThermoStar ([…] Vacuum, Asslar, Germany). The instrument was operated and data evaluated with Software Quadstar 32-bit (V7.01, Inficon, LI-9496 Balzers, Liechtenstein).

[1] = tested on: TNFα-induced NF-κB activation; test: TNFα-induced NF-κB luciferase reporter, HeLa/NF-κB-Luc cells; type: cell-based; conditions: Homo sapiens, 1 h pretreatment, TNFα 10 ng/mL 5 h
Source text: NF-κB is a transcription factor that plays a central role in the regulation of many immune and inflammatory responses.

[2] = tested on: Nrf2 protein expression in SK-N-SH cells; test: in-cell western NQO1 assay, SK-N-SH cells; type: cell-based; conditions: Homo sapiens, 72 h, 3 days incubation, read-out: EC50 for induction of Nrf2 protein expression in SK-N-SH cells
Procedure: HMOX1 protein was not detected in untreated or RTA 408-treated SH-SY5Y cells. […] The same amount of 63170 (54.6 nM) was required.
The EC50 was measured using an in-cell western NQO1 assay where the cells were incubated with the compound under evaluation for 3 days. After incubation with the compound of interest, the cells were reacted with mouse NQO1 antibody and then the next day the cells were reacted with IRDye-800CW-anti-mouse IgG antibody. The target signals were visualized and then analyzed.

glutathione levels = test: induction of glutathione levels, RAW264.7 mouse model; type: cell-based
Source text: Glutathione and NADPH are critical factors required for the maintenance of cellular redox capacity. […] Data shown are representative of two independent experiments.

[3] = tested on: IFNγ-induced NO production; test: IFNγ-induced NO production in RAW264.7 macrophages (Griess reagent); type: cell-based; conditions: Mus musculus
Procedure: (§1) Inhibition of IFNγ-induced NO production by AIMs is Nrf2-dependent (Dinkova-Kostova, 2005). […] Nitrite (NO2^−) levels in the media were measured as a surrogate for nitric oxide using the Griess reagent assay. Cell viability was assessed using the WST-1 assay. […] 63170, 63171, 63179, and 63189 are compounds of the formulas: […]

RAW264.7 cells = test: WST-1 cell viability, RAW264.7; type: cell-based; conditions: Mus musculus
Procedure: as §1

[4] = 2 h pre-treatment, 20 ng/mL IFNγ 24 h, read-out: IC50, suppression of IFNγ-induced NO production

Row | Structure (SMILES) | EC50 [2] | EC50 (glutathione levels) | IC50 [3, 4] | other results
1 | CC1(C)CC[C@]2(NC(=O)C(C)(F)F)CC[C@]3(C)[C@H](C(=O)C=C4[C@@]5(C)C=C(C#N)C(=O)C(C)(C)[C@@H]5CC[C@]43C)[C@@H]2C1 [Form A] |  |  |  | hygroscopicity (TGA-MS of solid forms): slightly hygroscopic; mass loss in TGA-MS between 25 and 200° C. (TGA-MS of solid forms): ~0.5 wt.-%
2 | CC1(C)CC[C@]2(NC(=O)C(C)(F)F)CC[C@]3(C)[C@H](C(=O)C=C4[C@@]5(C)C=C(C#N)C(=O)C(C)(C)[C@@H]5CC[C@]43C)[C@@H]2C1 [Form B] |  |  |  | hygroscopicity (TGA-MS of solid forms): very slightly hygroscopic; mass loss in TGA-MS between 25 and 200° C. (TGA-MS of solid forms): ~0.2 wt.-%
3 | CC(=O)N[C@]12CCC(C)(C)C[C@H]1[C@H]1C(=O)C=C3[C@@]4(C)C=C(C#N)C(=O)C(C)(C)[C@@H]4CC[C@@]3(C)[C@]1(C)CC2 [compound 63170] | 54.6 nM | 12.1 nM | 8 ± 3 nM | IC50 [1]: 953 nM
4 | CC1(C)CC[C@]2(NC(=O)C(F)(F)F)CC[C@]3(C)[C@H](C(=O)C=C4[C@@]5(C)C=C(C#N)C(=O)C(C)(C)[C@@H]5CC[C@]43C)[C@@H]2C1 [compound 63171] | 122 nM | 23.2 nM | 6.9 ± 0.6 nM | 
5 | CC1(C)CC[C@]2(NC(=O)CC(F)(F)F)CC[C@]3(C)[C@H](C(=O)C=C4[C@@]5(C)C=C(C#N)C(=O)C(C)(C)[C@@H]5CC[C@]43C)[C@@H]2C1 [compound 63179] | 126 nM |  |  | IC50 ([3]; unit given as nm, read-out: IC50, suppression of IFNγ-induced NO production): 11 ± 2 nM
6 | CCC(=O)N[C@]12CCC(C)(C)C[C@H]1[C@H]1C(=O)C=C3[C@@]4(C)C=C(C#N)C(=O)C(C)(C)[C@@H]4CC[C@@]3(C)[C@]1(C)CC2 [compound 63189] | 102 nM | 16 nM | 7 ± 2 nM | IC50 [1]: 854 nM
7 | CC1(C)CC[C@]2(CO)CC[C@]3(C)[C@H](C(=O)C=C4[C@@]5(C)C=C(C#N)C(=O)C(C)(C)[C@@H]5CC[C@]43C)[C@@H]2C1 [compound 63355, reference compound] |  |  |  | IC50 ([3]; Table 15, read-out: NO IC50 (nM), RAW264.7): 0.63 ± 0.06 nM; IC50 (RAW264.7 cells): 150 nM
